In patent US9877940B2, “Anthraquinone compounds and their uses” (DUNDALK INSTITUTE OF TECHNOLOGY, priority 2010, dated 2018):

Target: T1, BK channels (Oryctolagus cuniculus, UniProt Q9BG98)
T1 construct: wherein the native BK channels were more sensitive to Ca^2+; from tissue
Experiment: Single channel recordings, inside-out patch clamp, voltage ramps, isolated smooth muscle cells of the rabbit bladder
Type: cell-based
Conditions: for ΔV1/2 (mV) in 100 nm Ca^2+: 10 μM compound, inside-out patch; for effect on BK channel activity, in words (SAR discussion based on V1/2 data): inside out patches on rabbit smooth muscle cells
Description: All experiments were approved by the Dundalk Institute of Technology Animal Care and Use Committee. […] The urinary bladder and most proximal 1.5 cm of the urethra was removed and placed in Krebs solution. Strips of bladder tissue, 0.5 cm in width were dissected, cut into 1 mm^3 pieces and stored in Ca^2+-free Hanks' solution for 30 min prior to cell dispersal. Tissue pieces were incubated in dispersal medium containing (per 5 ml) of Ca^2+-free Hanks' solution: 15 mg collagenase (Sigma type 1A), 1 mg protease (Sigma type XXIV), 10 mg bovine serum albumin (Sigma) and 10 mg trypsin inhibitor (Sigma) for 10-15 min at 37° C. Tissue was then transferred to Ca^2+-free Hanks' solution and stirred for a further 10-15 min to release single smooth muscle cells. These were plated in Petri dishes containing 100 μM Ca^2+ Hanks' solution and stored at 4° C. for use within 8 h. During experiments, the dish containing the cells was continuously perfused with Hanks' solution at 36±1° C. Additionally the cell under study was continuously superfused by means of a custom built close delivery system with a pipette of tip diameter 200 μm placed approximately 300 μm from the cell. The high K^+ solution in the close delivery system could be switched to a drug-containing solution with a dead space time of less than 5 s.
For whole cell recordings pipettes were pulled from borosilicate glass capillary tubing (1.5 mm outer diameter, 1.17 mm inner diameter; Clark Medical Instruments) to a tip of diameter approximately 1-1.5 μm and resistance of 2-4 Mohms. For single channel recordings, pipettes were pulled from borosilicate glass capillary tubing (1.5 mm outer diameter, 0.8 mm inner diameter; Clark Medical Instruments) and fire polished before use. Voltage clamp commands were delivered via an Axopatch 1D or Axon 200B patch clamp amplifiers (Axon Instruments) and membrane currents were recorded by a 12 bit AD/DA converter (Axodata 1200 or Labmaster, Scientific Solutions) interfaced to an Intel computer running pCLAMP software.
All values in (mM): KCl, 140. Glucose, 10, EGTA 1 and HEPES, 10. For free Ca^2+ greater than 300 nM: All values in (mM): KCl, 140. Glucose, 10, H-EDTA 1 and HEPES, 10. The same solution composition is used in the bath as in the patch pipette for these experiments except that the pipette solution contained 100 nM Ca^2+.
In single channel experiments voltage commands were applied using pClamp ramped potentials. This allowed more efficient measurement of slope conductance and channel activation than conventional step depolarisations. Activation curves were calculated by averaging current responses to 15 potential ramps and dividing each data point of the averaged current by the single channel amplitude at that holding potential, after leakage current correction. […] This analysis provides a continuous recording of the number of open channels multiplied by the open probability (NPo) over the entire voltage range. To obtain values for the steepness of the voltage-dependent activation and half-maximal activation voltage, activation curves were fitted with Boltzman functions of the form: NPo=n/{1+exp[−K(V−V1/2)]} where N is the number of channels in the patch, n is the maximal NPo level, K^−1 is the steepness of the voltage-dependent activation (change in potential necessary to cause an e-fold increase in activation) and V1/2 is the voltage at which there is half-maximal activation. Again, all of the experiments were carried out at 36±1° C.
The patches were held at a potential of −100 mV and voltage ramps were then applied from −100 mV up to +100 mV over 2 s.
Patches were held at −100 mV and ramped through to +100 mV and each sweep was repeated 15 times. The same protocol was repeated after the patch was incubated in 1 μM Ca^2+.

T1 sequence (Q9BG98 whole entry): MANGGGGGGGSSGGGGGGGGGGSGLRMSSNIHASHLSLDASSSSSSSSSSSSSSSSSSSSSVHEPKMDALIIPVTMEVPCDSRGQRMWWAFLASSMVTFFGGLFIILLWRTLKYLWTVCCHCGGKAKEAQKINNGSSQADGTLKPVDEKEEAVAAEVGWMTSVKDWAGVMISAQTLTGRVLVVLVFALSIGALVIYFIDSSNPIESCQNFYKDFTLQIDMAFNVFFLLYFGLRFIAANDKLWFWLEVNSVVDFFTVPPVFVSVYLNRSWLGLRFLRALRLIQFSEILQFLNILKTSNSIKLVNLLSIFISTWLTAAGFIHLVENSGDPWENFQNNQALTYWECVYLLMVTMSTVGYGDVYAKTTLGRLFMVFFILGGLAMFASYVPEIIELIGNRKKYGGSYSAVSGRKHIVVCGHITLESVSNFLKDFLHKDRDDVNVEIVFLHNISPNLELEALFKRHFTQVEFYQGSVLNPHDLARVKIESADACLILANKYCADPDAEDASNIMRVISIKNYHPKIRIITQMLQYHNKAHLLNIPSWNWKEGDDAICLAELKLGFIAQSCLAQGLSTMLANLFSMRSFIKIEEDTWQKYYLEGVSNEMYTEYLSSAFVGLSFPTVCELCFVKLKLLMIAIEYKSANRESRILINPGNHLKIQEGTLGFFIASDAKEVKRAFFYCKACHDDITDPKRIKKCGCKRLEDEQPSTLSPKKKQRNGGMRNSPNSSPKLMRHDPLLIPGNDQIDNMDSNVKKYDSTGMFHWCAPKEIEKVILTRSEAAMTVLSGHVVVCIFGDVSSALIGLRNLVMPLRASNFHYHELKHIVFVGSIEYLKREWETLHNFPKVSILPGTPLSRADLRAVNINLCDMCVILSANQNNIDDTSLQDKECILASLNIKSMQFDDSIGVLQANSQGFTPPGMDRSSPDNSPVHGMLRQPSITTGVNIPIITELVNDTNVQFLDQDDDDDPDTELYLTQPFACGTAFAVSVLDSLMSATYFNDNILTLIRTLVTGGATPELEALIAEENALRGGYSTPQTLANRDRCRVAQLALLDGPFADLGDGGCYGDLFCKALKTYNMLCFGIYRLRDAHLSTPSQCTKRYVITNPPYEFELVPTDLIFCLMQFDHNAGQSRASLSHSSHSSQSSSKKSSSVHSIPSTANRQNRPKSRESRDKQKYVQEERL

| SMILES | ΔV1/2 (mV) in 100 nm Ca^2+ (Table 2) [mV] | effect on BK channel activity, in words (SAR discussion based on V1/2 data) | ΔV1/2 (mV) in 100 nm Ca^2+ (Table 1, V1/2 control vs drug) [mV] |
| --- | --- | --- | --- |
| Nc1c(C(=O)O)cc(Nc2cccc(C(F)(F)F)c2)c2c1C(=O)c1ccccc1C2=O [SR-5-88, 1-amino-9,10-dioxo-4-((3-(trifluoromethyl)phenyl)amino)-9,10-dihydroanthracene-2-carboxylic acid] | −98.8 | activity was not altered | – |
| Cc1cccc(Nc2cc(S(=O)(=O)[O-])c(N)c3c2C(=O)c2ccccc2C3=O)c1.[Na+] [SR-5-26, sodium 4-(m-toluidino)-1-amino-9,10-dioxo-9,10-dihydroanthracene-2-sulfonate] | – | – | −53.5 |
| CCc1ccc(Nc2cc(S(=O)(=O)[O-])c(N)c3c2C(=O)c2ccccc2C3=O)cc1.[Na+] [SR-5-97, sodium 1-amino-4-((4-ethylphenyl)amino)-9,10-dioxo-9,10-dihydroanthracene-2-sulfonate] | −78.5 | BK channel openers | – |
| CCc1cccc(Nc2cc(S(=O)(=O)[O-])c(N)c3c2C(=O)c2ccccc2C3=O)c1.[Na+] [SR-5-31, sodium 1-amino-4-(3-ethylphenylamino)-9,10-dioxo-9,10-dihydroanthracene-2-sulfonate] | – | – | −87.1 |
| Nc1c(S(=O)(=O)[O-])cc(Nc2cccc(OC(F)(F)F)c2)c2c1C(=O)c1ccccc1C2=O.[Na+] [SR-5-34, sodium 1-amino-9,10-dioxo-4-(3-(trifluoromethoxy)phenylamino)-9,10-dihydroanthracene-2-sulfonate] | – | – | −84.0 |
| Nc1c(S(=O)(=O)[O-])cc(Nc2cccc(-c3ccccc3)c2)c2c1C(=O)c1ccccc1C2=O.[Na+] [SR-5-94, sodium 4-([1,1′-biphenyl]-3-ylamino)-1-amino-9,10-dioxo-9,10-dihydroanthracene-2-sulfonate] | −60.0 | – | – |
| Nc1c(S(=O)(=O)[O-])cc(Nc2ccc(F)c(C(F)(F)F)c2)c2c1C(=O)c1ccccc1C2=O.[Na+] [SR-5-28, sodium 1-amino-4-(4-fluoro-3-(trifluoromethyl)phenylamino)-9,10-dioxo-9,10-dihydroanthracene-2-sulfonate] | – | – | −83.2 |
| Nc1c(S(=O)(=O)[O-])cc(Nc2ccc3c(c2)CCC3)c2c1C(=O)c1ccccc1C2=O.[Na+] [SR-5-64, sodium 1-amino-4-((2,3-dihydro-1H-inden-5-yl)amino)-9,10-dioxo-9,10-dihydroanthracene-2-sulfonate] | −87.6 | – | – |
| Nc1c(S(=O)(=O)[O-])cc(Nc2cccc(S(=O)(=O)O)c2)c2c1C(=O)c1ccccc1C2=O.[Na+] [SR-5-18, sodium 1-amino-9,10-dioxo-4-(3-sulfophenylamino)-9,10-dihydroanthracene-2-sulfonate] | – | decreases the activity dramatically | −23.2 |
| Nc1c(S(=O)(=O)[O-])cc(NC2CCCC2)c2c1C(=O)c1ccccc1C2=O.[Na+] [SR-5-8, sodium 1-amino-4-(cyclopentylamino)-9,10-dioxo-9,10-dihydroanthracene-2-sulfonate] | – | – | −24.24 |
| Nc1c(S(=O)(=O)[O-])cc(Nc2cc(F)cc(F)c2)c2c1C(=O)c1ccccc1C2=O.[Na+] [SR-5-14, sodium 1-amino-4-(3,5-difluorophenylamino)-9,10-dioxo-9,10-dihydroanthracene-2-sulfonate] | – | – | −24.2 |
| CCc1ccccc1Nc1cc(S(=O)(=O)[O-])c(N)c2c1C(=O)c1ccccc1C2=O.[Na+] [SR-5-96, sodium 1-amino-4-((2-ethylphenyl)amino)-9,10-dioxo-9,10-dihydroanthracene-2-sulfonate] | −84.8 | BK channel agonists | – |
| Nc1c(S(=O)(=O)[O-])cc(Nc2cccc3c2CCCC3)c2c1C(=O)c1ccccc1C2=O.[Na+] [SR-5-65, sodium 1-amino-9,10-dioxo-4-((5,6,7,8-tetrahydronaphthalen-1-yl)amino)-9,10-dihydroanthracene-2-sulfonate] | −116.2 | potent BK channel activator | – |
| Nc1c(S(=O)(=O)[O-])cc(NC2CCCCCC2)c2c1C(=O)c1ccccc1C2=O.[Na+] [SR-5-32, sodium 1-amino-4-(cycloheptylamino)-9,10-dioxo-9,10-dihydroanthracene-2-sulfonate] | – | – | −61.1 |
| Nc1c(S(=O)(=O)O)cc(Br)c2c1C(=O)c1ccccc1C2=O [Bromaminic acid, reference compound] | – | inhibitory effect | – |
| Nc1c(S(=O)(=O)[O-])cc(Nc2cccc(F)c2)c2c1C(=O)c1ccccc1C2=O.[Na+] [SR-5-15, sodium 1-amino-4-(3-fluorophenylamino)-9,10-dioxo-9,10-dihydroanthracene-2-sulfonate] | – | – | −28.4 |
| Nc1c(S(=O)(=O)[O-])cc(Nc2cccc(Cc3ccccc3)c2)c2c1C(=O)c1ccccc1C2=O.[Na+] [SR-5-68, sodium 1-amino-4-((3-benzylphenyl)amino)-9,10-dioxo-9,10-dihydroanthracene-2-sulfonate] | −120.0 | BK channel agonists | – |
| CC(C)c1ccccc1Nc1cc(S(=O)(=O)[O-])c(N)c2c1C(=O)c1ccccc1C2=O.[Na+] [SR-5-98, sodium 1-amino-4((2-isopropylphenyl)amino)-9,10-dioxo-9,10-dihydroanthracene-2-sulfonate] | −120.0 | BK channel agonists | – |
| CC(C)(C)c1cccc(Nc2cc(S(=O)(=O)[O-])c(N)c3c2C(=O)c2ccccc2C3=O)c1.[Na+] [SR-5-76, sodium 1-amino-4-((3-(tert-butyl)phenyl)amino)-9,10-dioxo-9,10-dihydroanthracene-2-sulfonate] | −94.9 | BK channel agonists | – |
| Nc1c(S(=O)(=O)[O-])cc(Nc2ccc(Cc3ccccc3)cc2)c2c1C(=O)c1ccccc1C2=O.[Na+] [SR-5-37, sodium 1-amino-4-(4-benzylphenylamino)-9,10-dioxo-9,10-dihydroanthracene-2-sulfonate] | – | BK channel openers | −77.8 |
| COc1ccccc1Nc1cc(S(=O)(=O)[O-])c(N)c2c1C(=O)c1ccccc1C2=O.[Na+] [SR-5-12, sodium 1-amino-4-(2-methoxyphenylamino)-9,10-dioxo-9,10-dihydroanthracene-2-sulfonate] | – | – | −54.1 |
| Nc1c(S(=O)(=O)[O-])cc(Nc2ccc(Cl)c(C(F)(F)F)c2)c2c1C(=O)c1ccccc1C2=O.[Na+] [SR-5-40, sodium 1-amino-4-(4-chloro-3-(trifluoromethyl)phenylamino)-9,10-dioxo-9,10-dihydroanthracene-2-sulfonate] | – | – | −97.8 |
| Nc1c(S(=O)(=O)[O-])cc(NC2CCCCC2)c2c1C(=O)c1ccccc1C2=O.[Na+] [Acid Blue 62, sodium 1-amino-4-(cyclohexylamino)-9,10-dioxo-9,10-dihydroanthracene-2-sulfonate] | – | – | −54.37 |
| Nc1c(S(=O)(=O)[O-])cc(Nc2cccc(O)c2)c2c1C(=O)c1ccccc1C2=O.[Na+] [SR-5-53, sodium 1-amino-4-((3-hydroxyphenyl)amino)-9,10-dioxo-9,10-dihydroanthracene-2-sulfonate] | −44.1 | – | – |
